Reference: patent publication US11219623B2, “Inflammasome inhibition for the treatment of Parkinson's disease, Alzheimer's disease and multiple sclerosis” (University of Kentucky Research Foundation, priority 2015, dated 2022)
In brackets after ≈: the same amount, converted by molar mass. Entries after “also recorded” stand apart in the source; their conditions may differ.

Key:
[1] = system: human LINE-1 retrotransposon; assay: EGFP cell culture L1 retrotransposition assay in HeLa cells; format: cell-based; conditions: 7 days after transfection, flow cytometry
Method: These findings pave way for the rational re-design and improvement of nucleoside analogs as novel therapeutics. The enhanced green fluorescent protein (EGFP) cell culture L1 retrotransposition assay was performed in HeLa cells. […] Transfected cells were selected in puromycin. 7 days after transfection, cells that underwent retrotransposition (EGFP-positive) were assayed by flow cytometry. Cells were gated based on background fluorescence of plasmid JM111, which has two point mutations in L1-ORF1 that abolish retrotransposition. Data are normalized with RPS set to 1.

[2] = system: GFP-expressing lentivirus; assay: GFP-expressing lentivirus transduction/replication assay in HeLa cells; format: cell-based; conditions: 10 μM; 72 hours; MOI 20
Method: All drugs were added at a concentration of 10 μM. Cells were imaged for GFP expression 72 hours after addition of lentivirus. GFP-positive cells per field of view were recorded. n=4-11, error bars S.E.M. Reverse transcription of lentivirus is essential for GFP expression; modified NRTIs should not block reverse transcriptase, whereas NRTIs are known to block reverse transcriptase.
The present disclosure further provides the results of additional experiments in FIG. 21-FIG. 23.

wild-type mice [3] = assay: pAlu-induced RPE degeneration, mouse model of dry AMD; format: in vivo; conditions: intraperitoneal 25 mg/kg twice daily
Method: Mouse studies were conducted to study treatment with NRTIs or derivatives.

mtDNA = assay: Relative quantity of mtDNA, quantitative PCR, primary human RPE cells; conditions: 50 μM; four days; relative to DMSO
Caspase-1 [4] = assay: Iron (III) ammonium citrate-induced Caspase-1 activation, western blot, primary human RPE cells; format: cell-based; conditions: Fe(III) ammonium citrate (100 μM)
Source text: Caspase-1 activation (p20 subunit) in primary human retinal pigment epithelium (RPE) cells in the presence of iron (III) ammonium citrate was studied.
Caspase-1 activation (p10 subunit) in primary human RPE cells in the presence of iron (III) ammonium citrate was studied.
Alu RNA is a toxic endogenous retroelement that accumulates in and causes death of the RPE in patients with dry AMD. […] FAC activates Caspase-1 via an Alu RNA intermediate, and induces NLRP3-dependent RPE degeneration (Gelfand et al. Cell Reports 2015). Fe(III) ammonium citrate (100 μM)-induced Caspase-1 activation in primary human RPE cells, monitored by western blotting, is reduced by TM-3TC (25 μM), d4T-ene (25 μM), 2Me-d4T (25 μM), Me-AZT (25-100 μM), and 2Me-AZT (25 μM). N=3-4.

wild-type mice [5] = assay: Laser-induced choroidal neovascularization (CNV; wet AMD) in wild-type mice; conditions: intravitreous 0.14 nmol; day 7; N=16
[6] = LogP, partition coefficient in 1-octanol; format: physicochemical; conditions: 1-octanol partition
Solubility in water = format: physicochemical; conditions: aqueous buffer; Water pH 7.2 at 37° C.
Caspase-1 [7] = assay: iGLuc luminescence assay of ATP-induced Caspase-1 activation in J774 iGLuc cells; format: cell-based, mouse; conditions: for Caspase-1 cleavage (luminescence): ATP 5 mM, drug 1 nM-100 μM, N=3; for reduction of inflammasome activation: ATP (5 mM), mouse J774 iGLuc cells, FIGS. 70-73
Method: Caspase-1 is the enzyme at the core of the inflammasome complex and is an important danger response signal and mediator of RPE cell death in AMD. […] Importantly, there was some difference between individual compounds in terms of the dose response curve, emphasizing the need to test each compound (with unique R group(s)) individually.
To obtain the data set forth in FIGS. 64-73, an iGLuc assay was conducted (modified from Bartok et al. iGLuc: a luciferase-based inflammasome and protease activity reporter. Nature Methods 2013; 10(2):147-54). Briefly, 100,000 iGLuc cells per well were plated in a 96 well plate overnight. The next morning, media is aspirated from the plate and replaced with 75 μL of serum free DMEM with drugs (NRTIs or modified NRTIs) for 30 min. After 30 minutes of drug exposure, 20 mM ATP (25 μL) is added for a final concentration of 5 mM. 50 μL of media from each well is collected and 50 μL of coelenterazine 4.4 μM is added to each sample, and luminescence is read immediately.

Caspase-1 [8] = assay: Alu RNA-induced Caspase-1 activation, western blot, primary human RPE cells; format: cell-based
Source text: The bottom row in FIG. 5 is a vinculin loading control.

IL-18 = assay: LPS/ATP-induced IL-18 maturation, mouse bone marrow-derived macrophages; format: cell-based; conditions: 100 uM; cell culture supernatants
Caspase-1 [9] = assay: LPS/ATP-induced Caspase-1 activation, mouse bone marrow-derived macrophages, western blot; conditions: 100 uM; cell culture supernatants
IL-1 beta = assay: MSU-induced IL-1 beta secretion from PMA-differentiated THP-1 monocytes, ELISA; format: cell-based, human; conditions: 25-1000 uM
Source text: Human THP-1 monocytes were differentiated into macrophages with PMA.
To illustrate this, human THP-1 monocytes were differentiated into macrophages with PMA. Treatment with MSU increased IL-1 beta secretion compared to non-treated cells. […]

human P2X7 receptor = biological target: T1, human P2X7 receptor (Homo sapiens, UniProt Q99572); conditions: 64 μM drug; bzATP 100 μM; n=12
T1 sequence (Q99572 1-595): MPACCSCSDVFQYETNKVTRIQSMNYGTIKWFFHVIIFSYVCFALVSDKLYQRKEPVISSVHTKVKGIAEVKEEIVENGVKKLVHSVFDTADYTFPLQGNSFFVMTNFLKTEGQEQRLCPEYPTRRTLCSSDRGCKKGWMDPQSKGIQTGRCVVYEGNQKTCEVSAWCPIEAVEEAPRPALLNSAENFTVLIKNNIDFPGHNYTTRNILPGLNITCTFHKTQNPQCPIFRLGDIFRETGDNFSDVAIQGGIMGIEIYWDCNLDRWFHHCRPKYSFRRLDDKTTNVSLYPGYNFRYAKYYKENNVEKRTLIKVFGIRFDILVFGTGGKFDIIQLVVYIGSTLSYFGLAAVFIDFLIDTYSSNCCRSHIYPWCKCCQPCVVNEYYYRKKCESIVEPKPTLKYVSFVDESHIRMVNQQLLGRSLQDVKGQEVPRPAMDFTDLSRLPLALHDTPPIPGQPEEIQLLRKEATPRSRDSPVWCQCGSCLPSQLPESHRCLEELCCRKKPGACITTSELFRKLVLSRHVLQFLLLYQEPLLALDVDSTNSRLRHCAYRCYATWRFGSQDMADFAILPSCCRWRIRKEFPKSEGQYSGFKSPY

wild-type mice [10] = assay: Alu RNA-induced RPE degeneration, mouse model of dry AMD; conditions: intraperitoneal 25 mg/kg, twice daily for 6 days

| logP [6] | solubility (Solubility in water) | SMILES | L1 retrotransposition (EGFP-positive cells) [1] | pAlu-induced RPE degeneration (wild-type mice [3]) | Caspase-1 cleavage (luminescence) (Caspase-1 [7]) | further results |
| --- | --- | --- | --- | --- | --- | --- |
| 1.16 | 1600 µg/mL (≈ 5.1 mM) | CCOC[C@H]1O[C@@H](n2ccc(N(CC)CC)nc2=O)CS1 (stereo in doubt) [Kamuvudine 3Et-3TC, 4-(diethylamino)-1-[2-(ethoxymethyl)-1,3-oxathiolan-5-yl]-1,2-dihydropyrimidin-2-one] | some residual interference with natural L1 activity | protects against RPE degeneration | reduces Caspase-1 cleavage in a dose-dependent fashion | choroidal neovascularization (CNV) volume (wild-type mice [5]): reduced choroidal neovascularization (CNV) volume |
| 1.35 | 90 µg/mL (≈ 0.321 mM) | CCOC[C@@H]1C=C[C@H](n2cc(C)c(=O)n(CC)c2=O)O1 [Kamuvudine 2Et-d4T, 1-[(2R,5 S)-5-(ethoxymethyl)-2,5-dihydrofuran-2-yl]-3-ethyl-5-methyl-1,2,3,4-tetrahydropyrimidine-2,4-dione] | no effect on L1 activity | protects against RPE degeneration | reduces Caspase-1 cleavage in a dose-dependent fashion | Alu RNA induced Caspase-1 activation (Caspase-1 [8]; 25 μM, N=3-4): reduced; reduction of inflammasome activation (Caspase-1 [7]): about 45% |
| 1.17 | 10 µg/mL (≈ 0.0309 mM) | CCOC[C@H]1O[C@@H](n2cc(C)c(=O)n(CC)c2=O)C[C@@H]1N=[N+]=[N-] [Kamuvudine 2Et-AZT, 1-[(2R,4S,5 S)-4-azido-5-(ethoxymethyl)oxolan-2-yl]-3-ethyl-5-methyl-1,2,3,4-tetrahydropyrimidine-2,4-dione] | no effect on L1 activity | protects against RPE degeneration | reduces Caspase-1 cleavage in a dose-dependent fashion | choroidal neovascularization (CNV) volume (wild-type mice [5]): reduced choroidal neovascularization (CNV) volume |
| 0.99 | 1500 µg/mL (≈ 5.63 mM) | CCn1c(=O)c(C)cn([C@H]2C=C[C@@H](COC)O2)c1=O [O-Me N-Et d4T, 3-ethyl-1-[(2R,5S)-5-(methoxymethyl)-2,5-dihydrofuran-2-yl]-5-methyl-1,2,3,4-tetrahydropyrimidine-2,4-dione] | – | – | reduces Caspase-1 cleavage in a dose-dependent fashion | choroidal neovascularization (CNV) volume (wild-type mice [5]): reduced choroidal neovascularization (CNV) volume; Alu RNA induced Caspase-1 activation (Caspase-1 [8]; 25 μM, N=3-4): reduced; Alu RNA-induced RPE degeneration (wild-type mice [10]): protects against Alu RNA-induced RPE degeneration; reduction of inflammasome activation (Caspase-1 [7]): about 55% |
| -1.1 | 64000 µg/mL (≈ 279 mM) | Nc1ccn([C@@H]2CS[C@H](CO)O2)c(=O)n1 [reference compound] | – | – | – | – |

The remaining lines, values behind:

| SMILES | logP [6] | solubility (Solubility in water) | L1 retrotransposition (EGFP-positive cells) [1] | pAlu-induced RPE degeneration (wild-type mice [3]) | Caspase-1 cleavage (luminescence) (Caspase-1 [7]) | further results |
| --- | --- | --- | --- | --- | --- | --- |
| COCC1O[C@@H](n2cc(C)c(=O)[nH]c2=O)CC1N=[N+]=N (stereo partly drawn) [Me-AZT, 1-[(5R)-2-(methoxymethyl)-5-(5-methyl-2,4-dioxo-1,2,3,4-tetrahydropyrimidin-1-yl)oxolan-3-yl]triaza-1,2-dien-2-ium] | – | – | no effect on L1 activity | restored to healthy RPE morphology/intercellular junctions | – | lentivirus replication (GFP-positive cells per field) [2]: do not block lentivirus replication; relative quantity of mtDNA (mtDNA depletion) (mtDNA): do not exhibit mtDNA depletion; iron-induced Caspase-1 activation (Caspase-1 [4]; 25-100 μM): reduced |
| Clc1ccc(C(c2ccc(Cl)cc2)n2cc[n+](CC(OCc3ccc(Cl)cc3Cl)c3ccc(Cl)cc3Cl)c2)cc1 (centres unmarked) [calmidazolium, reference compound] | – | – | – | – | – | Alu RNA-induced Caspase-1 activation/cleavage (Caspase-1 [8]; concentration not given): not inhibited |
| Nc1ncnc2c1ncn2[C@@H]1O[C@H](CO)C[C@H]1O [cordycepin] | – | – | – | – | – | IL-18 maturation induced by LPS/ATP (IL-18): inhibit; Alu RNA-induced Caspase-1 maturation (Caspase-1 [8]; 50-100 uM, 24 hours after Alu administration): blocked; Caspase-1 activation (active p20 band) induced by LPS/ATP (Caspase-1 [9]): inhibit Caspase-1 activation; IL-1beta secretion induced by MSU (IL-1 beta): did not significantly affect IL-1beta secretion |
| Clc1cccc(-c2nnnn2Cc2cccnc2)c1Cl [Kamuvudine A438079] | – | – | – | – | – | P2X7-mediated YO-PRO-1 dye uptake induced by bzATP (human P2X7 receptor): inhibited |
| COC[C@H]1O[C@@H](n2cc(C)c(=O)n(C)c2=O)C[C@@H]1N=[N+]=[N-] [Kamuvudine 2Me-AZT, 1-[(2R,4S,5S)-4-azido-5-(methoxymethyl)oxolan-2-yl]-3,5-dimethyl-1,2,3,4-tetrahydropyrimidine-2,4-dione] | 0.45 | 940 µg/mL (≈ 3.18 mM) | no effect on L1 activity | restored to healthy RPE morphology/intercellular junctions | reduces Caspase-1 cleavage in a dose-dependent fashion | Alu RNA induced Caspase-1 activation (Caspase-1 [8]; 25 μM, N=3-4): reduced; lentivirus replication (GFP-positive cells per field) [2]: do not block lentivirus replication; relative quantity of mtDNA (mtDNA depletion) (mtDNA): do not exhibit mtDNA depletion; iron-induced Caspase-1 activation (Caspase-1 [4]; 25 μM): reduced |
| C=C1C=C[C@H](n2cc(C)c(=O)[nH]c2=O)O1 [d4T-ene] | – | – | – | – | – | Alu RNA induced Caspase-1 activation (Caspase-1 [8]; 25-100 μM (25 and 100 μM)): blocked Alu-induced Caspase-1 activation; also recorded: reduced; iron-induced Caspase-1 activation (Caspase-1 [4]; 25 μM): blocked iron-induced Caspase-1 activation; also recorded: reduced |
